Data reported in patent US20200179286A1, “CARRIER STRUCTURE AND DRUG CARRIER, AND PREPARING METHODS THEREOF” (GENE'E TECH CO., LTD., priority 2018, published 2020).
Values after ≈ are worked out from the molar mass of the structure shown.

Tested on: H. pylori
Test: in vitro inhibition of H. pylori suspension (OD450 after 48 hours)
Format: cell-based
Details: Helicobacter pylori, read-out: minimum inhibitory concentration
Protocol: FIGS. 7 and 8 show the results of the in vitro application of the drug carrier according to some embodiments of this invention. In the in vitro experiment, a suspension of H. pylori was obtained and respectively added with amoxicillin (with a minimum inhibitory concentration of about 0.5 μg/ml and the concentration was fixed at 0.5 μg/ml), samples 1, 5, A and E above. Next, the suspensions of H. pylori, after the addition of amoxicillin and the above samples, were further cultured for 48 hours, the OD450 of the suspension each was measured to determine the effect of inhibiting H. pylori. […] Through this test, it can be clearly seen that both the carrier structure and the drug carrier of the disclosure have the ability to inhibit H. pylori, especially the drug carrier with appropriate active substances has an obvious effect.

CC1(C)S[C@@H]2[C@H](NC(=O)[C@H](N)c3ccc(O)cc3)C(=O)N2[C@H]1C(=O)O [amoxicillin] was tested, and the MIC was roughly 0.5 µg/mL (≈ 1.37 µM).
